Source: PubChem BioAssay AID2060501 (Molecular Pharmacology Branch, DTP, NCI, 2025)
Each block holds one molecule with its values, some of them ahead of it.

Tested on: 282377-053-R-J1-PDC complex spheroids, viability
Assay: Anticancer human tumor 282377-053-R-J1-PDC patient-derived colon adenocarcinoma cell line growth inhibition [GQUAD]
Conditions: for IC50: curve of first compound; for viability, T/C: stronger effect = lower value
Summary of the method: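 Multi-cell-type spheroids of tumor cells with HUVEC and mesenchymal stem cells, treated with drug combinations. Concentrations descend in half-log steps from near clinical Cmax, or from 10 microM where Cmax is unknown; viability read-out.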

[1] = second compound 0.0316 µM, first compound 0.0316 µM
[2] = second compound 0.0316 µM, first compound 0.1 µM
[3] = second compound 0.0316 µM, first compound 0.316 µM
[4] = second compound 0.0316 µM, first compound 1 µM
[5] = second compound 0.0316 µM, first compound 3.16 µM
[6] = second compound 0.0316 µM, first compound 10 µM
[7] = second compound 0.1 µM, first compound 0.0316 µM
[8] = second compound 0.1 µM, first compound 0.1 µM
[9] = second compound 0.1 µM, first compound 0.316 µM
[10] = second compound 0.1 µM, first compound 1 µM
[11] = second compound 0.1 µM, first compound 3.16 µM
[12] = second compound 0.1 µM, first compound 10 µM
[13] = second compound 0.316 µM, first compound 0.0316 µM
[14] = second compound 0.316 µM, first compound 0.1 µM
[15] = second compound 0.316 µM, first compound 0.316 µM
[16] = second compound 0.316 µM, first compound 1 µM
[17] = second compound 0.316 µM, first compound 3.16 µM
[18] = second compound 0.316 µM, first compound 10 µM
[19] = second compound 1 µM, first compound 0.0316 µM
[20] = second compound 1 µM, first compound 0.1 µM
[21] = second compound 1 µM, first compound 0.316 µM
[22] = second compound 1 µM, first compound 1 µM
[23] = second compound 1 µM, first compound 3.16 µM
[24] = second compound 1 µM, first compound 10 µM
[25] = second compound 3.16 µM, first compound 0.0316 µM
[26] = second compound 3.16 µM, first compound 0.1 µM
[27] = second compound 3.16 µM, first compound 0.316 µM
[28] = second compound 3.16 µM, first compound 1 µM
[29] = second compound 3.16 µM, first compound 3.16 µM
[30] = second compound 3.16 µM, first compound 10 µM
[31] = second compound 10 µM, first compound 0.0316 µM
[32] = second compound 10 µM, first compound 0.1 µM
[33] = second compound 10 µM, first compound 0.316 µM
[34] = second compound 10 µM, first compound 1 µM
[35] = second compound 10 µM, first compound 3.16 µM
[36] = second compound 10 µM, first compound 10 µM
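Further: spheroids exposed to compounds for 7 days before readout.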
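Wherever viability, T/C is given: percent of vehicle DMSO control viability with 100% = untreated-like growth.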

SMILES: Cc1cccc(N(C)C(=O)C2C(O)CCN2c2nc(C)cc(C(F)(F)F)c2C#N)c1 (stereo unspecified) + CN(C)c1ccc(Nc2c3ccc(NC(=O)CCN4CCCC4)cc3nc3cc(NC(=O)CCN4CCCC4)ccc23)cc1
IC50 (second compound 0.0316 µM): > 10000 nM | IC50 (second compound 0.1 µM): > 10000 nM | IC50 (second compound 0.316 µM): > 10000 nM | IC50 (second compound 1 µM): > 10000 nM | IC50 (second compound 3.16 µM): > 10000 nM | IC50 (second compound 10 µM): > 10000 nM | viability, T/C [1]: 110% | viability, T/C [2]: 104% | viability, T/C [3]: 93.3% | viability, T/C [4]: 98.7% | viability, T/C [5]: 78.2% | viability, T/C [6]: 104% | viability, T/C [7]: 105% | viability, T/C [8]: 96.9% | viability, T/C [9]: 103% | viability, T/C [10]: 93.8% | viability, T/C [11]: 96.3% | viability, T/C [12]: 82.3% | viability, T/C [13]: 101% | viability, T/C [14]: 103% | viability, T/C [15]: 84.5% | viability, T/C [16]: 106% | viability, T/C [17]: 90.2% | viability, T/C [18]: 63.8% | viability, T/C [19]: 100% | viability, T/C [20]: 87.5% | viability, T/C [21]: 90.5% | viability, T/C [22]: 90.1% | viability, T/C [23]: 94.6% | viability, T/C [24]: 88.1% | viability, T/C [25]: 94.2% | viability, T/C [26]: 96.8% | viability, T/C [27]: 96.7% | viability, T/C [28]: 94.5% | viability, T/C [29]: 128% | viability, T/C [30]: 109% | viability, T/C [31]: 91.8% | viability, T/C [32]: 97% | viability, T/C [33]: 110% | viability, T/C [34]: 105% | viability, T/C [35]: 122% | viability, T/C [36]: 80%

SMILES: Cn1ncnc1[C@H]1c2n[nH]c(=O)c3cc(F)cc(c23)N[C@@H]1c1ccc(F)cc1 + CN(C)c1ccc(Nc2c3ccc(NC(=O)CCN4CCCC4)cc3nc3cc(NC(=O)CCN4CCCC4)ccc23)cc1
IC50 (second compound 0.0316 µM): > 316 nM | IC50 (second compound 0.1 µM): > 316 nM | IC50 (second compound 0.316 µM): > 316 nM | IC50 (second compound 1 µM): > 316 nM | IC50 (second compound 3.16 µM): > 316 nM | IC50 (second compound 10 µM): > 316 nM | viability, T/C (second compound 0.0316 µM, first compound 0.000999 µM): 96.8% | viability, T/C (second compound 0.0316 µM, first compound 0.00316 µM): 92.6% | viability, T/C (second compound 0.0316 µM, first compound 0.00999 µM): 101% | viability, T/C [1]: 104% | viability, T/C (second compound 0.0316 µM, first compound 0.0999 µM): 112% | viability, T/C [3]: 110% | viability, T/C (second compound 0.1 µM, first compound 0.000999 µM): 127% | viability, T/C (second compound 0.1 µM, first compound 0.00316 µM): 82.7% | viability, T/C (second compound 0.1 µM, first compound 0.00999 µM): 88.7% | viability, T/C [7]: 105% | viability, T/C (second compound 0.1 µM, first compound 0.0999 µM): 101% | viability, T/C [9]: 98.8% | viability, T/C (second compound 0.316 µM, first compound 0.000999 µM): 109% | viability, T/C (second compound 0.316 µM, first compound 0.00316 µM): 77.7% | viability, T/C (second compound 0.316 µM, first compound 0.00999 µM): 78.9% | viability, T/C [13]: 89.3% | viability, T/C (second compound 0.316 µM, first compound 0.0999 µM): 94.3% | viability, T/C [15]: 83.3% | viability, T/C (second compound 1 µM, first compound 0.000999 µM): 109% | viability, T/C (second compound 1 µM, first compound 0.00316 µM): 108% | viability, T/C (second compound 1 µM, first compound 0.00999 µM): 100% | viability, T/C [19]: 94.9% | viability, T/C (second compound 1 µM, first compound 0.0999 µM): 107% | viability, T/C [21]: 89.1% | viability, T/C (second compound 3.16 µM, first compound 0.000999 µM): 85.5% | viability, T/C (second compound 3.16 µM, first compound 0.00316 µM): 81% | viability, T/C (second compound 3.16 µM, first compound 0.00999 µM): 101% | viability, T/C [25]: 90.8% | viability, T/C (second compound 3.16 µM, first compound 0.0999 µM): 92.8% | viability, T/C [27]: 102% | viability, T/C (second compound 10 µM, first compound 0.000999 µM): 81.4% | viability, T/C (second compound 10 µM, first compound 0.00316 µM): 84.8% | viability, T/C (second compound 10 µM, first compound 0.00999 µM): 91.6% | viability, T/C [31]: 106% | viability, T/C (second compound 10 µM, first compound 0.0999 µM): 101% | viability, T/C [33]: 101%

IC50 (second compound 0.0316 µM): 157 nM | IC50 (second compound 0.1 µM): 144 nM | IC50 (second compound 0.316 µM): 120 nM | IC50 (second compound 1 µM): 49.4 nM | IC50 (second compound 3.16 µM): < 31.6 nM | IC50 (second compound 10 µM): < 31.6 nM
SMILES: Nc1ccn(C2OC(CO)C(O)C2(F)F)c(=O)n1 (stereo unspecified) + Cc1cnc(CNC(=O)c2c(=O)c3ccc(N4CCCN(C)CC4)nc3n3c2sc2ccccc23)cn1
viability, T/C [1]: 98.5% | viability, T/C [2]: 65.9% | viability, T/C [3]: 25.2% | viability, T/C [4]: 24% | viability, T/C [5]: 22.9% | viability, T/C [6]: 16.7% | viability, T/C [7]: 104% | viability, T/C [8]: 61.7% | viability, T/C [9]: 24.5% | viability, T/C [10]: 24.9% | viability, T/C [11]: 25.1% | viability, T/C [12]: 16.3% | viability, T/C [13]: 81.6% | viability, T/C [14]: 53.6% | viability, T/C [15]: 32% | viability, T/C [16]: 22.1% | viability, T/C [17]: 22.7% | viability, T/C [18]: 16.2% | viability, T/C [19]: 53.9% | viability, T/C [20]: 44.1% | viability, T/C [21]: 25.6% | viability, T/C [22]: 22.4% | viability, T/C [23]: 20.4% | viability, T/C [24]: 15.7% | viability, T/C [25]: 49.1% | viability, T/C [26]: 37.5% | viability, T/C [27]: 23.2% | viability, T/C [28]: 21% | viability, T/C [29]: 22.4% | viability, T/C [30]: 15.9% | viability, T/C [31]: 39.2% | viability, T/C [32]: 33.5% | viability, T/C [33]: 22.1% | viability, T/C [34]: 20.3% | viability, T/C [35]: 20% | viability, T/C [36]: 10.8%
